Reference: patent US8324279B2, “Compositions and methods for inhibiting an isoform of human manganese superoxide dismutase” (MitoTek, LLC, priority 2003, dated 2012)
“Also recorded” adds a separate entry of the source.

Assays:
isoMnSOD [1] = assay: Peroxidative assay of native mitochondrial extracts from compound-treated pancreatic explants (ROS-activity blot); assay type: cell-based, pig; conditions: pancreatic explant cultured 1 hr at 37° C. with equal volume of 2 μM compound; FIG. 1
Method: Recombinant and mammalian detergent extracts of native mitochondrial proteins were separated in a 7% PAGE gel without SDS containing 375 mM Tris pH 8.2 at 100 volts for 1.5 hr. After electrotransfer of proteins to nitrocellulose using transfer buffer without SDS, peroxidative activity was measured directly upon the filter by their incubation with 0.5 ml of the Femtomole luminol solution (Pierce) containing 1 mM H2O2 and exposing to x-ray film or other means of detecting chemiluminescence.
F10 medium was used throughout the procedure. Pancreas (8 grams) from a 3 kilo pig was minced, washed twice, and 1 g of tissue was resuspended in 5 ml of FIO medium. […] Explants were stored frozen at −70° C. Tissue was homogenized in Buffer A at 4° C. and mitochondria was isolated by differential centrifugation and stored frozen at −70° C. Peroxidative assay of native mitochondrial extracts analyzed by the ROS-activity blot.

isoMnSOD [2] = assay: Pro-oxidant activity of isoMnSOD, at least one of the assays provided in the Examples; conditions: according to at least one of the assays provided in the Examples
Method: (§1) Each test compound was prepared by mixing 5 μL of a 1 mM test compound stock solution in ethanol with 5 μL of 0.1 M KOH, followed by the addition of 5 ml of TBS for a final concentration of 1 μM test compound. Equal amounts of native protein extracts from pancreatic mitochondria (obtained according to the protocol of Example 5) were loaded in separate wells and resolved in a 7% PAGE gel without SDS, electrotransferred to PVDF and divided into strips. Each PVDF strip was incubated with 1 μM of test compound in TBS for 30 minutes, washed twice in TBS for 20 minutes, and the peroxidative activity of isoMnSOD was measured by incubation of each strip with 1 mM H2O2 in 0.4 ml of the luminol solution contained within the Femtomole chemiluminescence assay kit (Pierce) and exposed to x-ray film (FIG. 4).
Peroxidative assay of native mitochondrial extracts analyzed by the ROS-activity blot.

isoMnSOD [3] = assay: Drug inhibition method: peroxidative activity of isoMnSOD on PVDF strips (ROS-activity blot); conditions: 1 μM test compound for 30 minutes; 1 mM H2O2, luminol chemiluminescence; FIG. 4
Method: as §1
All procedures were carried out at 4° C.

isoMnSOD [4] = biological target: T1, isoMnSOD (Homo sapiens, UniProt P04179); assay: Detection of inhibitors bound to isoMnSOD (immunoprecipitation/western blot); conditions: anti-dopamine or anti-serotonin antibody; FIG. 2A and 2B
T1 sequence (P04179 25-183 isoform P04179-2 limits assumed): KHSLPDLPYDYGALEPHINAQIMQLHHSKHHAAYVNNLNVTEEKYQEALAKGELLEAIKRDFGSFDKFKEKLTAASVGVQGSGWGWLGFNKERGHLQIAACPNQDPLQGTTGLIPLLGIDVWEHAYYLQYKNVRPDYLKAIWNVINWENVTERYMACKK
Method: Covalent modification of the MnSOD-Exon3-deleted isoform was measured by a combined immuneprecipitation/western blot analysis. Immunoblots for detecting AA-DA, EPA-DA, DHA-DA, C18:4(ω-3)-DA adducts were performed using anti-dopamine rabbit polyclonal (Chemicon) and anti-serotonin goat polyclonal antibodies (ImmunoStar), respectively. After immunoprecipitating using an antibody against the inhibitor, isoMnSOD was detected as described above.

[5] = tested on: adult cardiomyocyte explants; assay: Doxorubicin induction of isoMnSOD expression in adult heart explants (Western Blot); assay type: cell-based, rat; conditions: 3 days, 0.1 nM to 1.0 μM Doxorubicin, AdvDMEM 2% FBS, FIG. 3
Source text: Adult cardiomyocytes were isolated and purified following the combination of perfusion techniques (Borg et al. Recognition of extracellular matrix components by neonatal and adult cardiac myocytes. Dev Biol. 1984; 104:86-96) and an attachment procedure (Bugaisky L B, Zak R. Differentiation of adult rat cardiac myocytes in cell culture. Circ Res. 1989; 64:493-500) as described by Sil et al. (Sil et al. Myotrophin in human cardiomyopathic heart. Circ Res. 1993; 73:98-108). Briefly, after rats (5 weeks old) were killed by decapitation, the hearts were aseptically excised and residual blood was removed. The heart was perfused in Joklik's medium (containing Joklik's minimal essential medium, 25 mmol/L glutamic acid, 30 mmol/L taurine, and 1 mmol/L adenosine) without recirculation on a modified Langendorff apparatus for approximately 10 minutes at 37° C. The perfusion was then continued for 30 minutes at the same temperature, with recirculation in Joklik's medium containing collagenase type II (100 U/mL). After perfusion, the ventricles were cut into small pieces and tritulated in 0.05% Trypsin/EDTA for 10 min. Cardiac explants were cultured overnight on laminin-coated (20 μg per well) 35-mm six-well plates in medium 199 containing 5% FBS, 5 mM creatine, 2 mM L-carnitine, and 5 mM taurine. […]

altMnSODreport = assay: Testing of drugs for toxicity with the reporter gene system; assay type: cell-based; conditions: cells comprising the reporter gene system
Method: Drugs are tested alone or in combination in cancerous or diseased cells and in healthy cells. The compounds are added to cells comprising the reporter gene system. The induction of the reporter is characterized in the absence and the presence of the drug(s).
Breast cancer cell line, MDA-MB-435, Her-2/neu over-expressing (ATCC), fibroblast cells lines NIH3T3 and B104, which are NIH3T3 cells transfected with the rat ErbB2/Her2 oncogene, and normal primary cells (Clonetics; rat cardiomyocytes, donated by Kathryn Maschhoff, MD PhD, Neonatology, University of Pennsylvania) are treated with doxorubicin alone and in combination with the rat ErbB2/Her2 17.6.4 monoclonal antibody, which downregulates the human and rat Her2 receptor (Zhang et al., 1999)(Oncogene), and Herceptin™ (Genentech). It is also determined if the Her2 mAbs induces isoMnSOD expression in untransfected cells and cells transfected with altMnSODreport. A dose-response curve is established, using western immunoblot analysis of the isoMnSOD protein and the expression of the reporter construct. A similar analysis is performed for doxorubicin treatment of cells. Both treatments are analyzed for their effects on mtDNA stability by Southern hybridization analysis, induction of lipid peroxidation by immunodetection of HNE-modified proteins, and induction of apoptosis by activation of caspases 9 and 3.

| Molecule | mitochondrial peroxidase activity (isoMnSOD [1]) | pro-oxidant activity of isoMnSOD (isoMnSOD [2]) | peroxidative activity of isoMnSOD (isoMnSOD [3]) | binding to isoMnSOD (covalent modification of the MnSOD-Exon3-deleted isoform) (isoMnSOD [4]) | isoMnSOD expression [5] | expression of altMnSOD report (altMnSODreport) |
| --- | --- | --- | --- | --- | --- | --- |
| CC/C=C\C/C=C\C/C=C\C/C=C\C/C=C\CCCC(=O)NCCc1ccc(O)c(O)c1 [eicosapentaenoyl (EPA)-dopamine, eicosapentaenoyl dopamine] | did not inhibit peroxidase activity to the same effect | found to inhibit pro-oxidant activity of isoMnSOD | inhibit peroxidative activity more significantly than the other compounds | – | – | – |
| CCCCC/C=C\C/C=C\C/C=C\C/C=C\CCCC(=O)NCCc1c[nH]c2ccc(O)cc12 [arachidonoyl-serotonin, arachidonoyl serotonin] | inhibited the mitochondiral peroxidase activity | found to inhibit pro-oxidant activity of isoMnSOD | – | able to bind to isoMnSOD | – | – |
| CC/C=C\C/C=C\C/C=C\C/C=C\C/C=C\C/C=C\CCC(=O)NCCc1ccc(O)c(O)c1 [docosahexaenoyl (DHA)-dopamine, docosahexaenoyl dopamine] | inhibited the mitochondiral peroxidase activity | found to inhibit pro-oxidant activity of isoMnSOD | inhibit peroxidative activity more significantly than the other compounds | able to bind to isoMnSOD | – | – |
| COc1cccc2c1C(=O)c1c(O)c3c(c(O)c1C2=O)C[C@@](O)(C(=O)CO)C[C@@H]3O[C@H]1C[C@H](N)[C@H](O)[C@H](C)O1 [Doxorubicin] | – | – | – | – | induced isoMnSOD expression; also recorded: induces the expression of isoMnSOD | causes an increase in expression of altMnSOD report |
| C18:4(ω-3)-dopamine | inhibited the mitochondiral peroxidase activity | found to inhibit pro-oxidant activity of isoMnSOD | inhibit peroxidative activity more significantly than the other compounds | able to bind to isoMnSOD | – | – |
